One molecule from US11731946B2, “Broad spectrum antivirulence, anti-persistence compounds” (priority 2017, dated 2023) can be followed below.

The subject of assay [1] is MvfR regulon. Briefly: pqsA gene expression (pqsA-GFP reporter). Format: cell-based, P. aeruginosa. The conditions noted are these: Pseudomonas aeruginosa.
Assay [2] has as its system MvfR regulon. The experiment in a line: LC/MS quantification of HAQs and related molecules in bacterial culture supernatants. In kind it is cell-based, P. aeruginosa. The conditions noted are these: for IC50 / activity at 50 µM: Pseudomonas aeruginosa.

With `N#Cc1ccc(NC(=O)CC(=O)Nc2ccc(Br)cc2)cc1` [Compound 54], the IC50 in the assay on MvfR regulon [1] (read-out: IC50 pqsA (μM)) amounted to 1.28 µM; with MvfR regulon [2] (PA14, read-out: IC50 2-AA (μM)), 4.7 µM; in the assay on MvfR regulon [2] (PA14, read-out: IC50 DHQ (μM)), 10.1 µM; in the assay with MvfR regulon [2] (PA14, read-out: IC50 HHQ (μM)), 11.2 µM; in the assay with MvfR regulon [2] (PA14, read-out: IC50 PQS (μM)) it was 7.8 µM; in the assay on MvfR regulon [2] (read-out: IC50 AA (increase; μM)), 11.3 µM. The IC50 with MvfR regulon [2] (read-out: IC50 HQNO (μM)) came to 8.7 µM. In the assay with MvfR regulon [1] (read-out: pqsA @10 uM (%), compound at 10 uM), the activity at 10 µM stood at 8.8%. Moreover, the activity at 50 µM with MvfR regulon [1] (read-out: pqsA @50 uM (%), compound at 50 uM) amounted to 7.93%; in the assay with MvfR regulon [2] (read-out: 2-AA @50 uM) it was 5.63%; in the assay on MvfR regulon [2] (read-out: AA @50 uM), 701%; in the assay on MvfR regulon [2] (read-out: DHQ @50 uM), 10.6%; in the assay on MvfR regulon [2] (read-out: HHQ @50 uM (%)), 1.76%; in the assay on MvfR regulon [2] (read-out: HQNO @50 uM (%)), 12.5%. Besides, in the assay with MvfR regulon [2] (read-out: PQS @50 uM (%)), the activity at 50 µM is 7.4%. Moreover, the “reduction of hydroxy-2-alkylquinoline (HAQ) and 2-AA production” value in the assay with MvfR regulon [2] (liquid culture grown with 50 µM Compound 54 (FIG. 1C)) is 5 to 10 fold.
